A short description of data set [1]: ABTS assay, antioxidant activity of TMDs functionalized in aqueous solution. The settings on record: TMDs functionalized with PCL-b-PEO in aqueous solution; absorbance change at 734 nm after 12 hours; FIG. 9A; read-out: IC50 (ABTS radical scavenging). The data set is classed as biochemical. The method, then: Specifically, the antioxidant activity of four types of TMDs (MoS2, WS2, MoSe2, and WSe2) functionalized with an amphiphilic block polymer compound in an aqueous solution and Trolox (vitamin E) were measured by an ABTS (2,2′-azino-bis-(3-ethylbenzothiazoline-6-sulfonic acid)) assay.
Specifically, 7 mM 2,2′-azino-bis-(3-ethylbenzothiazoline-6-sulfonic acid) (ABTS) and 2.45 mM potassium persulfate were mixed to make the final concentration and left in a dark place at room temperature for 24 hours. Then, the mixture was diluted with distilled water so that the absorbance value at 734 nm was […]. 100 μl of the sample of each concentration was added to 100 μl of the diluted ABTS radical solution, followed by mixing. After 12 hours, the change of absorbance was measured. The same amount of Trolox as a standard material was added for measurement.

Data set [2] in a line: Photostability of antioxidant activity under solar simulator (ABTS assay). The data set is classed as physicochemical. The settings on record: after 3 hours, FIG. 9B.

The term IC50 denotes the concentration at which inhibition is half-maximal.

The structures appear in SMILES notation.

Turning to `Cc1c(C)c2c(c(C)c1O)CCC(C)(C(=O)O)O2` (centres unmarked) [Trolox], the IC50 in data set [1] worked out at 11.7 µM. For the same compound, in data set [2], the “antioxidant activity remaining under light” value was 50%.

Source of the values: patent US10695282B2, “Functionalized transition metal dichalcogenides and composition for antioxidation containing the same” (AMOREPACIFIC CORPORATION, priority 2017, dated 2020).
